A word on the EC50: it is the concentration at which the effect is half-maximal. Low readings indicate a more potent agent, high ones a less potent agent.

This assay deals with T1, human RXFP1 (Homo sapiens, UniProt Q9HBX9).
T1 construct: expressed in transfected cells
T1 sequence (Q9HBX9 1-757): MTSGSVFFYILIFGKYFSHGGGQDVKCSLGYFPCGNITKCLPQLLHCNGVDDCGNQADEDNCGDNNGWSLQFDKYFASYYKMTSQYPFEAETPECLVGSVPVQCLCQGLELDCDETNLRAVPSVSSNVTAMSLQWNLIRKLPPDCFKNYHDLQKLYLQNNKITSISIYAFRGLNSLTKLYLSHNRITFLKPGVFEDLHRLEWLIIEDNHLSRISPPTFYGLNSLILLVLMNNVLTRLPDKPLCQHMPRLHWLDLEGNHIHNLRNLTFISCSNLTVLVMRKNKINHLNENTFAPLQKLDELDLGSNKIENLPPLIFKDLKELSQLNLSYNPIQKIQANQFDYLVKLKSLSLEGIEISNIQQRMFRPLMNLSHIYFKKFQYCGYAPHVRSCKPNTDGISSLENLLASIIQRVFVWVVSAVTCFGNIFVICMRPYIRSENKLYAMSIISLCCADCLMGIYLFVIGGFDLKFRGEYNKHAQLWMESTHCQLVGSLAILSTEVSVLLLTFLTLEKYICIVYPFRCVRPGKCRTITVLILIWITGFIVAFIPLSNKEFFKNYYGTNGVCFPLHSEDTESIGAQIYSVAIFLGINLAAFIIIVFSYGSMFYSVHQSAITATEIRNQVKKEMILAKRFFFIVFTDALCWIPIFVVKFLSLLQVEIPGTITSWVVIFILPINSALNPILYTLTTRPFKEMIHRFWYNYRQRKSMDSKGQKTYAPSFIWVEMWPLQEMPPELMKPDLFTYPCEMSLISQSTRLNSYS
In words: hRXFP1 HEK293 cAMP assay (HTRF). Type of assay: cell-based. The settings on record: HEK293 cells stably expressing human RXFP1, 30 min at room temperature. The method in brief: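 HEK293 cells stably expressing human RXFP1 were suspended in HBSS (Ca/Mg) with 20 mM HEPES, 0.05% BSA and 0.5 mM IBMX, then treated with compounds (0.010 nM–50 μM, 2% DMSO final) for 30 min at room temperature. Intracellular cAMP was measured by HTRF, and potency was derived from 4-parameter logistic fits.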
Background: Cyclic AMP is a second messenger, typically raised through Gs and lowered through Gi signalling.
The compound `COc1ccc(CN2CCOCC2)cc1C(=O)N[C@@H]1C2CCC(/C2=C/C(F)(F)F)[C@@H]1C(=O)Nc1ccc(F)c(C(F)(F)F)c1` (stereo partly drawn) [Example 13, (2S,3R,7Z)N-[4-fluoro-3-(trifluoromethyl)phe-nyl]-3-{2-methoxy-5-[(morpholin-4-yl)methyl]benzamido}-7-(2,2,2-trifluoroethylidene)bi-cyclo[2.2.1]heptane-2-carboxamide] gave an EC50 of 0.625 µM.

Compound `COc1ccc(C[C@@H]2CCC(=O)N2)cc1C(=O)NC1C2CCC(/C2=C/C(F)(F)F)[C@@H]1C(=O)Nc1ccc(F)c(C(F)(F)F)c1` (stereo partly drawn) [Example 183, (7Z)-N-[4-fluoro-3-(trifluoromethyl)phe-nyl]-3-(2-methoxy-5-{[(2S)-5-oxopyrrolidin-2-yl]methyl}benzamido)-7-(2,2,2-trifluoroethylidene)bi-cyclo[2.2.1]heptane-2-carboxamide] registered a 50% effective concentration (EC50) of 0.85 µM.

In turn, `COc1ccc(CCCO)cc1C(=O)NC1C2CCC(/C2=C/C2CCOCC2)[C@@H]1C(=O)Nc1ccc(F)c(C(F)(F)F)c1` (stereo partly drawn) [Example 165, (7Z)-N-[4-fluoro-3-(trifluoromethyl)phe-nyl]-3-[5-(3-hydroxypropyl)-2-methoxybenzamido]-7-[(oxan-4-yl)methylidene]bicy-clo[2.2.1]heptane-2-carboxamide] yielded an EC50 of 0.218 µM.

For `COc1ccc(C#CCCCCO)cc1C(=O)N[C@@H]1C2CCC(/C2=C/C(F)(F)F)[C@@H]1C(=O)Nc1ccc(F)c(C(F)(F)F)c1` (stereo partly drawn) [Example 78, (2S,4R,7Z)-N-[4-fluoro-3-(trifluoromethyl)phe-nyl]-3-[5-(6-hydroxyhex-1-yn-1-yl)-2-methoxybenzamido]-7-(2,2,2-trifluoroethylidene)bi-cyclo[2.2.1]heptane-2-carboxamide], the EC50 was found to be 0.229 µM.

In turn, `COc1ccc(C(=O)N2C[C@H]3CNC[C@H]3C2)cc1C(=O)N[C@H]1[C@@H](C(=O)Nc2ccc(F)c(C(F)(F)F)c2)[C@H]2CC[C@@H]1/C2=C\C1CC1` [Example 249] came in with an EC50 of 0.432 µM.

As to `COc1ccc(/C=C/C(=O)N2CCO[C@@H](CO)C2)cc1C(=O)N[C@H]1[C@@H](C(=O)Nc2ccc(F)c(C(F)(F)F)c2)[C@H]2CC[C@@H]1/C2=C\C(F)(F)F` [Example 310], the EC50 came to 0.087 µM.

Compound `COc1ccc(CCC(N)=O)cc1C(=O)NC1C2CCC(/C2=C/C(F)(F)F)[C@@H]1C(=O)Nc1ccc(F)c(C(F)(F)F)c1` (stereo partly drawn) [Example 140, (2S,3R,7Z)-3-[5-(2-carbamoylethyl)-2-methoxybenzamido]-N-[4-fluoro-3-(trifluoromethyl)phe-nyl]-7-(2,2,2-trifluoroethylidene)bi-cyclo[2.2.1]heptane-2-carboxamide] had an EC50 of 0.736 µM.

`COc1ccc(C)cc1C(=O)N[C@@H]1C2CCC(C2=C(C)C)[C@@H]1C(=O)Nc1ccc(F)c(C(F)(F)F)c1` (stereo partly drawn) [Example 360, (2S,3R)-N-[4-fluoro-3-(trifluoromethyl)phenyl]-3-(2-methoxy-5-methylbenzamido)-7-(propan-2-ylidene)bicyclo[2.2.1] heptane-2-carboxamide] registered an EC50 of 2 µM.

Consider `CCCc1ccc(OCCO)c(C(=O)N[C@@H]2C3CCC(/C3=C/C(F)(F)F)[C@@H]2C(=O)Nc2ccc(F)c(C(F)(F)F)c2)c1` (stereo partly drawn) [Example 108, (2S,3R,7Z)-N-[4-fluoro-3-(trifluoromethyl)phe-nyl]-3-[2-(2-hydroxyethoxy)-5-propylbenzamido]-7-(2,2,2-trifluoroethylidene)bi-cyclo[2.2.1]heptane-2-carboxamide], for which the half-maximal effective concentration (EC50) worked out at 2.27 µM.

In turn, `COc1ccc(S(=O)(=O)N2CCO[C@@H](CO)C2)cc1C(=O)NC1C2CCC(/C2=C/C(F)(F)F)[C@@H]1C(=O)Nc1ccc(F)c(C(F)(F)F)c1` (stereo partly drawn) [Example 200, (2S,3R,7Z)-N-[4-fluoro-3-(trifluoromethyl)phe-nyl]-3-(5-{[(2R)-2-(hydroxymethyl)mor-pholin-4-yl]sulfonyl}-2-methoxybenzamido)-7-(2,2,2-trifluoroethylidene)bi-cyclo[2.2.1]heptane-2-carboxamide] displayed an EC50 of 0.203 µM.

Compound `COc1ccc(C(=O)OC(C)(C)C)cc1C(=O)N[C@H]1[C@@H](C(=O)Nc2ccc(F)c(C(F)(F)F)c2)[C@H]2CC[C@@H]1/C2=C\C1CC1` [Example 227] displayed an EC50 of 0.0772 µM.

Compound `COc1ccc(CC2CCOCC2)cc1C(=O)NC1C2CCC(/C2=C/C2CCC2)[C@@H]1C(=O)Nc1ccc(F)c(C(F)(F)F)c1` (stereo partly drawn) [Example 194, (7Z)-7-(cyclobutylmethyli-dene)-N-[4-fluoro-3-(trifluoromethyl)phe-nyl]-3-{2-methoxy-5-[(oxan-4-yl)methyl]benzamido} bicyclo[2.2.1]hept-ane-2-carboxamide] showed an EC50 of 0.076 µM.

As to `COc1ccc(CC(C)CO)cc1C(=O)N[C@@H]1C2CCC(/C2=C/C(F)(F)F)[C@@H]1C(=O)Nc1ccc(F)c(C(F)(F)F)c1` (single isomer, unassigned) [Example 67], the midpoint of the response, the EC50, lay at 0.193 µM.

The compound `COc1ccc(C(=O)NCC(C)(C)O)cc1C(=O)N[C@H]1[C@@H](C(=O)Nc2ccc(F)c(C(F)(F)F)c2)[C@H]2CC[C@@H]1/C2=C\C1CC1` [Example 240, N3-[(1R,2R,3S,4R,7Z)-7-(cyclopropyl-methylidene)-3-{[4-fluoro-3-(trifluoromethyl)phenyl]carbamoyl}bicyclo[2.2.1]heptan-2-yl]-N1-(2-hydroxy-2-methylpropyl)-4-methoxybenzene-1,3-dicarboxamide] came in with an EC50 of 0.0531 µM.

Compound `COc1ccc(CCC(C)(C)O)cc1C(=O)NC1C2CCC(/C2=C/C2CCCC2)[C@@H]1C(=O)Nc1ccc(F)c(C(F)(F)F)c1` (stereo partly drawn) [Example 168, (7Z)-7-(cyclopentylmethyli-dene)-N-[4-fluoro-3-(trifluoromethyl)phe-nyl]-3-[5-(3-hydroxy-3-methylbutyl)-2-methoxybenzamido] bicyclo[2.2.1]heptane-2-carboxamide] returned an EC50 of 0.008 µM.

Turning to `COc1ccc(/C=C/C(=O)NC2CCC2)cc1C(=O)NC1C2CCC(/C2=C/C(F)(F)F)[C@@H]1C(=O)Nc1ccc(F)c(C(F)(F)F)c1` (stereo partly drawn) [Example 135, (2S,3R,7Z)-3-{5-[(1E)-2-(cyclobutylcarbamoyl)eth-1-en-1-yl]-2-methoxybenzamido}-N-[4-fluoro-3-(trifluoromethyl)phe-nyl]-7-(2,2,2-trifluoroethylidene)bi-cyclo[2.2.1]heptane-2-carboxamide], the EC50 amounted to 0.644 µM.

In the case of `COc1ccc(CCCO)cc1C(=O)N[C@@H]1C2CCC(/C2=C/C2CC2)[C@@H]1C(=O)Nc1ccc(F)c(C(F)(F)F)c1` (stereo partly drawn) [Example 91, (2S,3R,7Z)-7-(cyclopropylmethyli-dene)-N-[4-fluoro-3-(trifluoromethyl)phe-nyl]-3-[5-(3-hydroxypropyl)-2-methoxybenzamido] bicyclo[2.2.1]heptane-2-carboxamide], it took 0.07 µM to reach a half-maximal effect (EC50).

As to `COC(=O)OCC/C=C/c1ccc(OC)c(C(=O)N[C@H]2[C@@H](C(=O)Nc3ccc(F)c(C(F)(F)F)c3)[C@H]3CC[C@@H]2C3=C(C)C)c1` [Example 33, (E)-4-(3-(((1R,2R,3S,4R)-3-((4-fluoro-3-(trifluoromethyl)phenyl)carbamoyl)-7-(propan-2-ylidene)bicyclo[2.2.1]heptan-2-yl)carbamoyl)-4-methoxyphenyl) but-3-en-1-yl methyl carbonate], the midpoint of the response, the EC50, lay at 0.58 µM.

As for `COCCCc1ccc(OC)c(C(=O)NC2C3CCC(/C3=C/C(F)(F)F)[C@@H]2C(=O)Nc2ccc(F)c(C(F)(F)F)c2)c1` (stereo partly drawn) [Example 189, (2S,3R,7Z)-N-[4-fluoro-3-(trifluoromethyl)phe-nyl]-3-[2-methoxy-5-(3-methoxypropyl)benz-amido]-7-(2,2,2-trifluoroethylidene)bi-cyclo[2.2.1]heptane-2-carboxamide], the response was half-maximal at 0.494 µM (EC50).

On to `COc1ccc(S(=O)(=O)CCO)cc1C(=O)N[C@H]1[C@@H](C(=O)Nc2ccc(F)c(C(F)(F)F)c2)[C@H]2CC[C@@H]1/C2=C\C(F)(F)F` [Example 4, (1R,2S,3R,4R,Z)—N-(4-fluoro-3-(trifluoromethyl)phenyl)-3-(5-((2-hydroxyethyl)sulfonyl)-2-methoxybenzamido)-7-(2,2,2-trifluoroethylidene) bicyclo[2.2.1]heptane-2-carboxamide], for which the EC50 amounted to 0.337 µM.

In turn, `COc1ccc(C(C)(C)CCO)cc1C(=O)N[C@H]1[C@@H](C(=O)Nc2ccc(F)c(C(F)(F)F)c2)[C@H]2CC[C@@H]1/C2=C\C1CC1` [Example 269, (1R,2S,3R,4R,7Z)-7-(cyclopropyl-methylidene)-N-[4-fluoro-3-(trifluoromethyl)phenyl]-3-[5-(4-hydroxy-2-methylbutan-2-yl)-2-methoxybenzamido] bicyclo[2.2.1] heptane-2-carboxamide] came in with an EC50 of 0.244 µM.

For the origin of these results see patent US20250268903A1, “RXFP1 AGONISTS” (BRISTOL-MYERS SQUIBB COMPANY, priority 2021, published 2025).
